Laboratory results published in the supplement of paper PMC10307832.

What was measured:
Test in all cases: relative viability (nuclei count vs DMSO), 5 days (fraction); higher = more cells survive
Alisertib = compound: COc1cc(Nc2ncc3c(n2)-c2ccc(Cl)cc2C(c2c(F)cccc2OC)=NC3)ccc1C(=O)O [Alisertib]
Method in brief: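 Acceptance criteria were a control CV below 25% and at least one doubling per plate. Lung cancer cell lines in 1536-well plates got five library-drug doses (not always all listed) √10 apart by pinning and were left 5 days with no medium change. Viability divides treated-well nuclei by vehicle-well nuclei and is the median across plates. Nuclei were counted by MetaXpress from 4× Hoechst images.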

Alisertib + Tozasertib = compound: COc1cc(Nc2ncc3c(n2)-c2ccc(Cl)cc2C(c2c(F)cccc2OC)=NC3)ccc1C(=O)O [Alisertib] + Cc1cc(Nc2cc(N3CCN(C)CC3)nc(Sc3ccc(NC(=O)C4CC4)cc3)n2)n[nH]1 [Tozasertib] (partner 0.1 µM)
Method in brief: (§1)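 The day after seeding in 1536-well plates, lung cancer cell lines were treated by pin tool with a single drug, or with a fixed anchor-drug dose together with five library-drug doses (not always all listed) in √10 steps. After 5 days, a combined fix-and-stain solution (final 0.05% Triton X-100, 1% formaldehyde, 1 ug/ml Hoechst) was added. Nuclei counted on 4× images gave relative viability as treated counts over vehicle counts, reported as the median of duplicate plates.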

Alisertib + Trametinib = compound: COc1cc(Nc2ncc3c(n2)-c2ccc(Cl)cc2C(c2c(F)cccc2OC)=NC3)ccc1C(=O)O [Alisertib] + CC(=O)Nc1cccc(-n2c(=O)n(C3CC3)c(=O)c3c(Nc4ccc(I)cc4F)n(C)c(=O)c(C)c32)c1 [Trametinib] (partner 0.02 µM)
Method in brief: as §1

Alisertib + AZD7762 = compound: COc1cc(Nc2ncc3c(n2)-c2ccc(Cl)cc2C(c2c(F)cccc2OC)=NC3)ccc1C(=O)O [Alisertib] + NC(=O)Nc1cc(-c2cccc(F)c2)sc1C(=O)N[C@H]1CCCNC1 [AZD7762] (partner 0.2 µM)
Method in brief: as §1

Row | Cell Line | relative viability (Alisertib; 0.005 µM) | relative viability (Alisertib; 0.01581 µM) | relative viability (Alisertib; 0.05 µM) | relative viability (Alisertib; 0.1581 µM) | relative viability (Alisertib; 0.5 µM) | relative viability (Alisertib + Tozasertib; first compound 0.005 µM) | relative viability (Alisertib + Tozasertib; first compound 0.01581 µM) | relative viability (Alisertib + Tozasertib; first compound 0.05 µM) | relative viability (Alisertib + Tozasertib; first compound 0.1581 µM) | relative viability (Alisertib + Tozasertib; first compound 0.5 µM) | relative viability (Alisertib + Trametinib; first compound 0.005 µM) | relative viability (Alisertib + Trametinib; first compound 0.01581 µM) | relative viability (Alisertib + Trametinib; first compound 0.05 µM) | relative viability (Alisertib + Trametinib; first compound 0.1581 µM) | relative viability (Alisertib + Trametinib; first compound 0.5 µM) | relative viability (Alisertib + AZD7762; first compound 0.005 µM) | relative viability (Alisertib + AZD7762; first compound 0.01581 µM) | relative viability (Alisertib + AZD7762; first compound 0.05 µM) | relative viability (Alisertib + AZD7762; first compound 0.1581 µM) | relative viability (Alisertib + AZD7762; first compound 0.5 µM)
1 | H3255 | 0.94 | 0.859 | 0.586 | 0.251 | 0.205 | 0.737 | 0.503 | 0.296 | 0.137 | 0.227 | 0.662 | 0.637 | 0.441 | 0.309 | 0.295 | 0.712 | 0.952 | 0.613 | 0.274 | 0.234
2 | EPLC-272H | 0.834 | 0.758 | 0.646 | 0.127 | 0.139 | 0.238 | 0.176 | 0.144 | 0.192 | 0.16 | 0.258 | 0.278 | 0.275 | 0.179 | 0.158 | 0.286 | 0.308 | 0.196 | 0.12 | 0.106
3 | RERF-LC-KJ | 0.929 | 0.792 | 0.597 | 0.254 | 0.247 | 0.511 | 0.386 | 0.253 | 0.27 | 0.218 | 0.872 | 0.819 | 0.357 | 0.301 | 0.198 | 0.798 | 0.799 | 0.801 | 0.236 | 0.214
4 | NCI-H1793 | 0.745 | 0.473 | 0.411 | 0.264 | 0.233 | 0.45 | 0.231 | 0.269 | 0.176 | 0.185 | 0.373 | 0.285 | 0.192 | 0.207 | 0.188 | 0.327 | 0.166 | 0.215 | 0.148 | 0.115
5 | EKVX | 0.907 | 0.85 | 0.43 | 0.231 | 0.186 | 0.379 | 0.305 | 0.205 | 0.141 | 0.151 | 0.319 | 0.37 | 0.18 | 0.16 | 0.155 | 0.554 | 0.46 | 0.278 | 0.132 | 0.172
6 | ChaGo-K-1 | 0.84 | 0.855 | 0.348 | 0.245 | 0.223 | 0.228 | 0.213 | 0.194 | 0.207 | 0.198 | 0.772 | 0.795 | 0.213 | 0.191 | 0.159 | 0.827 | 0.755 | 0.633 | 0.213 | 0.166
7 | NCI-H23 | 0.752 | 0.529 | 0.272 | 0.217 | 0.197 | 0.27 | 0.249 | 0.165 | 0.208 | 0.15 | 0.318 | 0.222 | 0.199 | 0.169 | 0.148 | 0.194 | 0.139 | 0.127 | 0.135 | 0.0999
8 | EMC-BAC-2 | 0.681 | 0.625 | 0.455 | 0.299 | 0.259 | 0.243 | 0.283 | 0.214 | 0.224 | 0.173 | 0.839 | 0.681 | 0.439 | 0.347 | 0.304 | 0.834 | 0.569 | 0.591 | 0.313 | 0.28
9 | LOU-NH91 | 0.938 | 0.958 | 0.734 | 0.478 | 0.398 | 0.656 | 0.652 | 0.47 | 0.364 | 0.337 | 0.783 | 0.751 | 0.663 | 0.513 | 0.425 | 0.759 | 0.721 | 0.585 | 0.436 | 0.393
10 | LU99A | 0.961 | 0.853 | 0.579 | 0.288 | 0.193 | 0.276 | 0.272 | 0.219 | 0.216 | 0.203 | 0.507 | 0.473 | 0.181 | 0.212 | 0.195 | 0.502 | 0.296 | 0.158 | 0.131 | 0.136
11 | NCI-H1395 | 0.877 | 0.862 | 0.535 | 0.452 | 0.394 | 0.725 | 0.708 | 0.488 | 0.478 | 0.391 | 1.04 | 0.922 | 0.85 | 0.481 | 0.38 | 0.363 | 0.403 | 0.37 | 0.376 | 0.361
12 | NCI-H460 | 0.922 | 0.844 | 0.49 | 0.0862 | 0.0474 | 0.477 | 0.428 | 0.0521 | 0.0419 | 0.0268 | 0.102 | 0.147 | 0.0441 | 0.0212 | 0.0263 | 0.66 | 0.667 | 0.232 | 0.0611 | 0.0558
13 | 201T | 0.985 | 0.964 | 0.966 | 0.466 | 0.386 | 0.899 | 0.681 | 0.579 | 0.407 | 0.354 | 0.732 | 0.707 | 0.707 | 0.679 | 0.278 | 0.618 | 0.753 | 0.675 | 0.46 | 0.277
14 | NCI-H1944 | 0.923 | 1.08 | 0.789 | 0.39 | 0.273 | 0.242 | 0.239 | 0.258 | 0.195 | 0.187 | 0.414 | 0.408 | 0.272 | 0.251 | 0.173 | 0.531 | 0.54 | 0.421 | 0.147 | 0.147
15 | NCI-H2405 | 0.952 | 0.967 | 0.833 | 0.41 | 0.282 | 0.772 | 0.618 | 0.308 | 0.293 | 0.258 | 0.614 | 0.559 | 0.575 | 0.418 | 0.217 | 0.589 | 0.684 | 0.66 | 0.24 | 0.251
16 | NCI-H1703 | 0.871 | 0.721 | 0.57 | 0.241 | 0.143 |  |  |  |  |  |  |  |  |  |  | 0.119 | 0.134 | 0.115 | 0.0952 | 0.0979
